By IC50 is commonly meant the concentration that inhibits the measured activity by half. Lower therefore signals greater potency in that assay.

The experiment has as its target Gag-Pol polyprotein (Human immunodeficiency virus type 1 group M subtype B (isolateBRU/LAI) (HIV-1), UniProt P03367). Kind of experiment: Inhibition Assay: Inhibition of HIV integrase.
`COC(=O)c1nc(Br)c2cccnc2c1OCc1ccccc1` returned an IC50 of 950 nM.
In turn, `CCOC(=O)c1cc(F)ccc1C#N` showed an IC50 of 68000 nM.
With `CNS(=O)(=O)CCCCCl` the figure was 1000 nM.
As for `CNS(=O)(=O)CCCCN=[N+]=[N-]`, the IC50 worked out at 250 nM.
In turn, `CNS(=O)(=O)CCCCN` showed an IC50 of 360 nM.
With `CNS(=O)(=O)CCCCNC(=O)OC(C)(C)C` the figure was 1200 nM.
With `CNS(=O)(=O)CCCCC#N` the figure was 1600 nM.
For `COC(=O)c1nc(Br)c2cccnc2c1OS(=O)(=O)c1ccc(C)cc1` the value was 200 nM.
